The text below walks through data of US8535696B2, “Treating eczema and/or psoriasis” (Lypanosys Pte Limited, priority 2000, dated 2013).

Each structure is given as a SMILES string.

For test [1] the following is noted: laboratory experiments, www.gcinutrients.com; cited from earlier work.
Test [2] can be described thus: Trials with patients using dosage forms of cetyl myristate alone or with cetyl palmitate. The conditions noted are these: variety of patients, cetyl myristate alone. Format: in vivo, human.

As for `CCCCCCCCCCCCCCCCOC(=O)CCCCCCCCCCCCC` [cetyl myristate], the anti-arthritic activity entry in test [1] was “negligible”. In addition, in test [2], the “relief from the symptoms of IBS and/or IBD” value is “favourable responses”.
